From patent publication US8378104B2 (OSI Pharmaceuticals, LLC, priority 2010, dated 2013)
pIC50: −log10 of the molar value. Where a name gives a salt, the structure may show the parent alone.

Legend:
[1] = target: T1, TAK1-TAB1 fusion protein (Homo sapiens, UniProt O43318); assay: TAK1 biochemical assay (AlphaScreen, GST-MAP2K7 substrate); conditions: TAK1-TAB1 fusion protein, GST-MAP2K7 substrate; read-out: mean TAK1 IC50 (Col. A)
T1 construct: purchased Carna
T1 sequence (O43318 with tags, fused parts or gaps limits assumed): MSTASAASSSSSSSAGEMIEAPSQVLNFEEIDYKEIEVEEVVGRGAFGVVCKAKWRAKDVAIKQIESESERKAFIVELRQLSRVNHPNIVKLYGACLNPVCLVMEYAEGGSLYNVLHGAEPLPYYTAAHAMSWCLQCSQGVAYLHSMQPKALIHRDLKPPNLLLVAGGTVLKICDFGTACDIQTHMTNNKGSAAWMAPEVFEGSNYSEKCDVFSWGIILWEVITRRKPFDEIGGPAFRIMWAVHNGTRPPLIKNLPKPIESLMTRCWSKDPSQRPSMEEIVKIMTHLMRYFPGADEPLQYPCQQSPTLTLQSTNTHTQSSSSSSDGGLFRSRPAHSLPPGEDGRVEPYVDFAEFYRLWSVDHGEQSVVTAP

[2] = tested on: pJNK in HCT-116 cells; assay: Phospho-JNK (Thr183/Tyr185) Meso Scale ELISA assay, TNFα-stimulated HCT-116 cells; assay type: cell-based; conditions: Homo sapiens, read-out: mean HCT-116 pJNK ELISA IC50 (Col. B)
Method in brief: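 HCT-116 cells in 1% FCS medium were pretreated with compound for 4 hrs at 37° C, then stimulated with TNFα at 10 ng/mL final for 10 minutes. Lysates were taken in ice-cold lysis buffer with phosphatase and protease inhibitors, and phospho-JNK (Thr183/Tyr185) was measured by Meso Scale ELISA.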

Row | SMILES | pIC50 [1] | pIC50 [2]
1 | Nc1ncc(-c2cnn(C3CCN(C(=O)Nc4cccc5c4CCCC5)CC3)c2)c2cc(-c3cccc4cnsc34)oc12 [Example 340, 4-[4-(7-amino-2-benzo[d]isothiazol-7-yl-furo[2,3-c]pyridin-4-yl)-pyrazol-1-yl]-piperidine-1-carboxylic acid (5,6,7,8-tetrahydro-naphthalen-1-yl)-amide] | 6.00 to 7.00 | 6.00 to 7.00
2 | COCCCn1cc(-c2cnc(N)c3oc(-c4csc5cnccc45)cc23)cn1 [Example 342, 4-[1-(3-methoxy-propyl)-1H-pyrazol-4-yl]-2-thieno[2,3-c]pyridin-3-yl-furo[2,3-c]pyridin-7-ylamine] | 6.00 to 7.00 | 6.00 to 7.00
3 | CN(C)C(=O)CCn1cc(-c2cnc(N)c3oc(-c4csc5cnccc45)cc23)cn1 [Example 346, 3-[4-(7-amino-2-thieno[2,3-c]pyridin-3-yl-furo[2,3-c]pyridin-4-yl)-pyrazol-1-yl]-N,N-dimethyl-propionamide] | 6.00 to 7.00 | 5.00 to 6.00
4 | COc1nn([C@H]2CC[C@H](O)CC2)cc1-c1cnc(N)c2oc(-c3cccc4nnsc34)cc12 [Example 347, trans-4-{4-[7-amino-2-(1,2,3-benzothiadiazol-7-yl)furo[2,3-c]pyridin-4-yl]-3-methoxy-1H-pyrazol-1-yl}cyclohexanol diformate salt] | > 7.00 | > 7.00
5 | COCc1nc2cccc(-c3cc4c(-c5cnn(C6CCN(C(C)=O)CC6)c5)cnc(N)c4o3)c2s1 [Example 348, 1-[4-(4-{7-amino-2-[2-(methoxymethyl)-1,3-benzothiazol-7-yl]furo[2,3-c]pyridin-4-yl}-1H-pyrazol-1-yl)piperidin-1-yl]ethanone trifluoroacetate] | > 7.00 | > 7.00
6 | CCNc1nc2cccc(-c3cc4c(-c5cnn([C@H]6CC[C@H](O)CC6)c5)cnc(N)c4o3)c2s1 [Example 355, trans-4-(4-{7-amino-2-[2-(ethylamino)-1,3-benzothiazol-7-yl]furo[2,3-c]pyridin-4-yl}-1H-pyrazol-1-yl)cyclohexanol Trifluoroacetate (Salt)] | > 7.00 | > 7.00
7 | [2H]C([2H])([2H])Nc1ncc(-c2cnn([C@H]3CC[C@H](O)CC3)c2)c2cc(-c3cccc4nnsc34)oc12 [Example 361, trans-4-(4-{2-(1,2,3-benzothiadiazol-7-yl)-7-[(^2H3)methylamino]furo[2,3-c]pyridin-4-yl}-1H-pyrazol-1-yl)cyclohexanol] | > 7.00 | > 7.00
8 | CC(=O)N1CCC(n2cc(-c3cnc(N)c4oc(-c5nn(C)c6cnccc56)cc34)cn2)CC1 [Example 363, 1-(4-{4-[7-amino-2-(1-methyl-1H-pyrazolo[3,4-c]pyridin-3-yl)furo[2,3-c]pyridin-4-yl]-1H-pyrazol-1-yl}piperidin-1-yl)ethanone trifluoroacetic acid salt] | > 7.00 | 6.00 to 7.00
9 | Nc1ncc(-c2cnn([C@H]3CC[C@H](O)CC3)c2)c2cc(-c3cccn4cncc34)oc12 [Example 365, trans-4-{4-[7-amino-2-(imidazo[1,5-a]pyridin-8-yl)furo[2,3-c]pyridin-4-yl]-1H-pyrazol-1-yl}cyclohexanol.diformate] | > 7.00 | > 7.00
10 | CC(=O)N1CCC(n2cc(-c3cnc(N)c4oc(-c5cccc6cnncc56)cc34)cn2)CC1 [Example 367, 1-(4-{4-[7-amino-2-(phthalazin-5-yl)furo[2,3-c]pyridin-4-yl]-1H-pyrazol-1-yl}piperidin-1-yl)ethanone] | 6.00 to 7.00 | 6.00 to 7.00
11 | Nc1ncc(-c2cnn([C@H]3CC[C@H](O)CC3)c2)c2cc(-c3ccccc3)oc12 [Example 368, trans-4-[4-(7-amino-2-phenylfuro[2,3-c]pyridin-4-yl)-1H-pyrazol-1-yl]cyclohexanol] | 6.00 to 7.00 | 6.00 to 7.00
12 | N#Cc1cc(-c2cc3c(-c4cnn([C@H]5CC[C@H](O)CC5)c4)cnc(N)c3o2)c2snnc2c1 [Example 370, 7-{7-amino-4-[1-(trans-4-hydroxycyclohexyl)-1H-pyrazol-4-yl]furo[2,3-c]pyridin-2-yl}-1,2,3-benzothiadiazole-5-carbonitrile] | 6.00 to 7.00 | > 7.00
13 | N#Cc1ccc2cnsc2c1-c1cc2c(-c3cnn([C@H]4CC[C@H](O)CC4)c3)cnc(N)c2o1 [Example 372, 7-{7-amino-4-[1-(trans-4-hydroxycyclohexyl)-1H-pyrazol-4-yl]furo[2,3-c]pyridin-2-yl}-1,2-benzothiazole-6-carbonitrile.diformate] | 5.00 to 6.00 | 6.00 to 7.00
14 | Cc1ncc(-c2cnc(N)c3oc(-c4csc5cnccc45)cc23)s1 [Example 388, 4-(2-methyl-1,3-thiazol-5-yl)-2-(thieno[2,3-c]pyridin-3-yl)furo[2,3-c]pyridin-7-amine trifluoroacetate] | 6.00 to 7.00 | 6.00 to 7.00
15 | Nc1ncc(-c2ccoc2)c2cc(-c3csc4cnccc34)oc12 [Example 392, 4-(furan-3-yl)-2-(thieno[2,3-c]pyridin-3-yl)furo[2,3-c]pyridin-7-amine trifluoroacetate] | 6.00 to 7.00 | 5.00 to 6.00

Other lines, results leading:

Row | pIC50 [1] | pIC50 [2] | SMILES
16 | 6.00 to 7.00 | > 7.00 | Nc1ncc(-c2cnn(C3CCN(C(=O)NCC4CCCCC4)CC3)c2)c2cc(-c3cccc4cnsc34)oc12 [Example 341, 4-[4-(7-amino-2-benzo[d]isothiazol-7-yl-furo[2,3-c]pyridin-4-yl)-pyrazol-1-yl]-piperidine-1-carboxylic acid cyclohexylmethyl-amide]
17 | > 7.00 | > 7.00 | COCc1nc2cccc(-c3cc4c(-c5cnn([C@H]6CC[C@H](O)CC6)c5)cnc(N)c4o3)c2s1 [Example 349, trans-4-(4-{7-amino-2-[2-(methoxymethyl)-1,3-benzothiazol-7-yl]furo[2,3-c]pyridin-4-yl}-1H-pyrazol-1-yl)cyclohexanol Trifluoroacetate (salt)]
18 | > 7.00 | > 7.00 | CNc1nc2cccc(-c3cc4c(-c5cnn(C6CCN(C(C)=O)CC6)c5)cnc(N)c4o3)c2s1 [Example 350, 1-[4-(4-{7-amino-2-[2-(methylamino)-1,3-benzothiazol-7-yl]furo[2,3-d]pyridin-4-yl}-1H-pyrazol-1-yl)piperidin-1-yl]ethanone trifluoroacetate]
19 | > 7.00 | > 7.00 | CNc1nc2cccc(-c3cc4c(-c5cnn([C@H]6CC[C@H](O)CC6)c5)cnc(N)c4o3)c2s1 [Example 351, trans-4-(4-{7-amino-2-[2-(methylamino)-1,3-benzothiazol-7-yl]furo[2,3-c]pyridin-4-yl}-1H-pyrazol-1-yl)cyclohexanol Trifluoroacetate (Salt)]
20 | > 7.00 | > 7.00 | CCNc1nc2cccc(-c3cc4c(-c5cnn(C6CCN(C(C)=O)CC6)c5)cnc(N)c4o3)c2s1 [Example 354, 1-[4-(4-{7-amino-2-[2-(ethylamino)-1,3-benzothiazol-7-yl]furo[2,3-d]pyridin-4-yl}-1H-pyrazol-1-yl)piperidin-1-yl]ethanone trifluoroacetate]
21 | 6.00 to 7.00 | 5.00 to 6.00 | Nc1ncc(-c2cnn([C@H]3CC[C@H](O)CC3)c2)c2cc(-c3csc4cnc(O)cc34)oc12 [Example 360, 3-{7-Amino-4-[1-(trans-4-hydroxycyclohexyl)-1H-pyrazol-4-yl]furo[2,3-c]pyridin-2-yl}thieno[2,3-c]pyridin-5-ol]
22 | > 7.00 | > 7.00 | Cc1c(-c2cccc3nnsc23)oc2c(N)ncc(-c3cnn([C@H]4CC[C@H](O)CC4)c3)c12 [Example 362, trans-4-{4-[7-amino-2-(1,2,3-benzothiadiazol-7-yl)-3-methylfuro[2,3-c]pyridin-4-yl]-1H-pyrazol-1-yl}cyclohexanol]
23 | 6.00 to 7.00 | 5.00 to 6.00 | CC(=O)N1CCC(n2cc(-c3cnc(N)c4oc(-c5c6ccncc6nn5C)cc34)cn2)CC1 [Example 364, 1-(4-{4-[7-amino-2-(2-methyl-2H-pyrazolo[3,4-c]pyridin-3-yl)furo[2,3-c]pyridin-4-yl]-1H-pyrazol-1-yl}piperidin-1-yl)ethanone trifluoroacetic Acid Salt]
24 | > 7.00 | > 7.00 | Nc1ncc(-c2cnn([C@H]3CC[C@H](O)CC3)c2)c2cc(-c3cccc4cnncc34)oc12 [Example 366, trans-4-{4-[7-amino-2-(phthalazin-5-yl)furo[2,3-c]pyridin-4-yl]-1H-pyrazol-1-yl}cyclohexanol]
25 | > 7.00 | > 7.00 | Cc1cc(-c2cc3c(-c4cnn([C@H]5CC[C@H](O)CC5)c4)cnc(N)c3o2)c2snnc2c1 [Example 373, trans-4-{4-[7-amino-2-(5-methyl-1,2,3-benzothiadiazol-7-yl)furo[2,3-c]pyridin-4-yl]-1H-pyrazol-1-yl}cyclohexanol]
